In the supplement of paper PMC8671470:
Counter-ions that a name gives are not always drawn.

Tests used:
Settings in all cases: 72 h
[1] = test system: NOMO-1; assay: cell viability (% survival relative to DMSO control, bortezomib = 0%); higher = less cytotoxic
Method in brief: (§1)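 Percent survival is reported as the mean of duplicate wells. Cells from 10 AML and 5 CML lines were plated in 384-well plates containing compounds at 1, 10, 100, 1000 or 10000 nM and kept for 72 h at 37 °C in 5% CO2. Readout used CellTiter-Glo luminescence, scaled so that vehicle equals 100% and a 10 µM positive control equals 0%.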

[2] = test system: THP-1; assay: as above
Method in brief: as §1

[3] = test system: MOLM-13; assay: as above
Method in brief: as §1

[4] = test system: KU-812; assay: as above
Method in brief: as §1

[5] = test system: myeloid leukemia patient primary cells Pat.14; assay: cell viability (% survival relative to DMSO control); higher = less cytotoxic
Method in brief: (§2)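 Thawed, Ficoll-purified mononuclear cells from AML or CML patients in RPMI 1640 with 10% FBS were seeded at 10,000 cells/well on 384-well plates pre-printed with 70 compounds at five tenfold concentrations, 1–10,000 nM, in duplicate, for 72 h. Viability was read by CellTiter-Glo and normalised to DMSO and 10 μM proteasome-inhibitor wells. Where given, area under the curve came from four-parameter log-logistic fits (drc, PharmacoGx R packages).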

[6] = test system: myeloid leukemia patient primary cells Pat.5; assay: as above
Method in brief: as §2

[7] = test system: myeloid leukemia patient primary cells Pat.10; assay: as above
Method in brief: as §2

[8] = test system: myeloid leukemia patient primary cells Pat.15; assay: as above
Method in brief: as §2

[9] = test system: myeloid leukemia patient primary cells Pat.7; assay: as above
Method in brief: as §2

[10] = test system: myeloid leukemia patient primary cells Pat.1; assay: as above
Method in brief: as §2

[11] = test system: myeloid leukemia patient primary cells Pat.6; assay: as above
Method in brief: as §2

[12] = test system: myeloid leukemia patient primary cells Pat.8; assay: as above
Method in brief: as §2

[13] = test system: myeloid leukemia patient primary cells Pat.3; assay: as above
Method in brief: as §2

[14] = test system: myeloid leukemia patient primary cells Pat.13; assay: as above
Method in brief: as §2

[15] = test system: myeloid leukemia patient primary cells Pat.2; assay: as above
Method in brief: as §2

[16] = test system: myeloid leukemia patient primary cells Pat.9; assay: as above
Method in brief: as §2

[17] = test system: myeloid leukemia patient primary cells Pat.11; assay: as above
Method in brief: as §2

[18] = test system: myeloid leukemia patient primary cells Pat.4; assay: as above
Method in brief: as §2

[19] = test system: myeloid leukemia patient primary cells Pat.12; assay: as above
Method in brief: as §2

In the case of `CC(C)(Cc1ccccc1)NCC(O)c1ccc(O)c(NS(C)(=O)=O)c1` (stereo not given) [Zinterol hydrochloride], the cell viability ([1]; 1 nM) is reported as 107%, the cell viability ([1]; 10 nM) is reported as 107% and the cell viability ([1]; 100 nM) is reported as 101%. The cell viability ([1]; 1000 nM) was 98.6%, the cell viability ([1]; 10000 nM) was 97.4% and the cell viability ([2]; 1 nM) was 109%. For the same molecule, the cell viability ([2]; 10 nM) was 101%, the cell viability ([2]; 100 nM) was 111% and the cell viability ([2]; 1000 nM) was 103%. The cell viability ([2]; 10000 nM) was 102%, the cell viability ([3]; 1 nM) was 90.9% and the cell viability ([3]; 10 nM) was 86.8%. For the same molecule, the cell viability ([3]; 100 nM) was 82.3%, the cell viability ([3]; 1000 nM) was 90.7% and the cell viability ([3]; 10000 nM) was 98%. For the same molecule, the cell viability ([4]; 1 nM) was 113%, the cell viability ([4]; 10 nM) was 93.9% and the cell viability ([4]; 100 nM) was 106%. It also gave a cell viability ([4]; 1000 nM) of 87.1%, a cell viability ([4]; 10000 nM) of 97.6% and a cell viability ([5]; 1 nM) of 73.4%. It also gave a cell viability ([5]; 10 nM) of 87.2%, a cell viability ([5]; 100 nM) of 91.3% and a cell viability ([5]; 1000 nM) of 90.7%. It also gave a cell viability ([5]; 10000 nM) of 75.6%, a cell viability ([6]; 1 nM) of 17% and a cell viability ([6]; 10 nM) of over 100%. The cell viability ([6]; 100 nM) was 73%, the cell viability ([6]; 1000 nM) was 99.9% and the cell viability ([6]; 10000 nM) was 93.9%. The cell viability ([7]; 1 nM) was 61%, the cell viability ([7]; 10 nM) was 94.8% and the cell viability ([7]; 100 nM) was 38.2%. The cell viability ([7]; 1000 nM) was over 100%, the cell viability ([7]; 10000 nM) was over 100% and the cell viability ([8]; 1 nM) was 87%. For the same molecule, the cell viability ([8]; 10 nM) was over 100%, the cell viability ([8]; 100 nM) was 95.8% and the cell viability ([8]; 1000 nM) was 95.8%. The cell viability ([8]; 10000 nM) was 68.9%, the cell viability ([9]; 1 nM) was 54.3% and the cell viability ([9]; 10 nM) was over 100%. For the same molecule, the cell viability ([9]; 100 nM) was 76.6%, the cell viability ([9]; 1000 nM) was over 100% and the cell viability ([9]; 10000 nM) was over 100%. For the same molecule, the cell viability ([10]; 1 nM) was 89.4%, the cell viability ([10]; 10 nM) was over 100% and the cell viability ([10]; 100 nM) was 98.6%. It also gave a cell viability ([10]; 1000 nM) of 94.8%, a cell viability ([10]; 10000 nM) of over 100% and a cell viability ([11]; 1 nM) of over 100%. The cell viability ([11]; 10 nM) was over 100%, the cell viability ([11]; 100 nM) was over 100% and the cell viability ([11]; 1000 nM) was over 100%. For the same molecule, the cell viability ([11]; 10000 nM) was over 100%, the cell viability ([12]; 1 nM) was 88.5% and the cell viability ([12]; 10 nM) was 96.4%. It also gave a cell viability ([12]; 100 nM) of over 100%, a cell viability ([12]; 1000 nM) of 85.3% and a cell viability ([12]; 10000 nM) of 85.5%. For the same molecule, the cell viability ([13]; 1 nM) was 84.7%, the cell viability ([13]; 10 nM) was over 100% and the cell viability ([13]; 100 nM) was 93.4%. For the same molecule, the cell viability ([13]; 1000 nM) was 90.2%, the cell viability ([13]; 10000 nM) was 87.3% and the cell viability ([14]; 1 nM) was 96.7%. For the same molecule, the cell viability ([14]; 10 nM) was 99.8%, the cell viability ([14]; 100 nM) was 92.6% and the cell viability ([14]; 1000 nM) was over 100%. The cell viability ([14]; 10000 nM) was over 100%, the cell viability ([15]; 1 nM) was 85.5% and the cell viability ([15]; 10 nM) was 96.4%. The cell viability ([15]; 100 nM) was 86%, the cell viability ([15]; 1000 nM) was 99.7% and the cell viability ([15]; 10000 nM) was 93%. For the same molecule, the cell viability ([16]; 1 nM) was 79.2%, the cell viability ([16]; 10 nM) was 79.5% and the cell viability ([16]; 100 nM) was 67.4%. The cell viability ([16]; 1000 nM) was 74.7%, the cell viability ([16]; 10000 nM) was 87.2% and the cell viability ([17]; 1 nM) was 95.7%. The cell viability ([17]; 10 nM) was over 100%, the cell viability ([17]; 100 nM) was over 100% and the cell viability ([17]; 1000 nM) was 96.2%. For the same molecule, the cell viability ([17]; 10000 nM) was over 100%, the cell viability ([18]; 1 nM) was 87.7% and the cell viability ([18]; 10 nM) was 94.7%. For the same molecule, the cell viability ([18]; 100 nM) was 82.8%, the cell viability ([18]; 1000 nM) was 93.3% and the cell viability ([18]; 10000 nM) was 97.3%. For the same molecule, the cell viability ([19]; 1 nM) was 90.2%, the cell viability ([19]; 10 nM) was 98.3% and the cell viability ([19]; 100 nM) was 93.9%. It also gave a cell viability ([19]; 1000 nM) of 99% and a cell viability ([19]; 10000 nM) of 97.5%.
